Literature values as cited in patent EP0409903B1, “PROCESS FOR PREPARING POLYUNSATURATED FATTY ACIDS” (STAROIL LIMITED, priority 1988, dated 1989).

Settings: ingestion of DHA in ester form and/or as the free acid; Hiroi at al., 1978

CC/C=C\C/C=C\C/C=C\C/C=C\C/C=C\C/C=C\CCC(=O)O [DHA, docosahexaenoic acid]
DHA and EPA levels in plasmatic phospholipids: significantly increases
